Assay results as given in paper PMC11200585, “Prospects for Prostate Cancer Chemotherapy: Cytotoxic Evaluation and Mechanistic Insights of Quinolinequinones with ADME/PK Profile” (Biomedicines, 2024).

Tests used:
Format in all cases: cell-based, human
[1] = test system: OVCAR-8; test: NCI-60 five-dose assay (ovarian cancer); conditions: 48 h, SRB
[2] = test system: SNB-75; test: NCI-60 one-dose screen (CNS cancer); conditions: 10 µM single dose, 48 h
Protocol: (§1) The obtained quinolinequinones were submitted to NCI, Bethesda, USA, and, as per standard protocol of NCI, all compounds were evaluated for their antiproliferative activity at single-dose assay (10 µM concentration in DMSO) on a panel of 60 cancer cell lines derived from leukemia, non-small-cell lung, colon, CNS, melanoma, ovarian, renal, prostate, and breast, as per protocol. Tested compounds were added to the microtiter culture plates followed by incubation for 48 h at 37 °C. Sulforhodamine B (SRB), a protein-binding dye, is used for endpoint determination. The percent of the growth of the treated cells was determined in comparison to the untreated control cells and the results of each tested compound were reported. Data from one-dose experiments pertain to the percentage growth at 10 μM [16, 17, 18].

[3] = test system: SF-295; test: NCI-60 one-dose screen (CNS cancer); conditions: 10 µM single dose, 48 h
Protocol: as §1

[4] = test system: SNB-19; test: NCI-60 one-dose screen (CNS cancer); conditions: 10 µM single dose, 48 h
Protocol: as §1

[5] = test system: SF-539; test: NCI-60 one-dose screen (CNS cancer); conditions: 10 µM single dose, 48 h
Protocol: as §1

[6] = test system: U251; test: NCI-60 one-dose screen (CNS cancer); conditions: 10 µM single dose, 48 h
Protocol: as §1

[7] = test system: SF-268; test: NCI-60 one-dose screen (CNS cancer); conditions: 10 µM single dose, 48 h
Protocol: as §1

[8] = test system: CCRF-CEM; test: NCI-60 one-dose screen (leukemia); conditions: 10 µM single dose, 48 h
Protocol: as §1

[9] = test system: SR; test: NCI-60 one-dose screen (leukemia); conditions: 10 µM single dose, 48 h
Protocol: as §1

[10] = test system: K-562; test: NCI-60 one-dose screen (leukemia)
Protocol: as §1

[11] = test system: RPMI-8226; test: NCI-60 one-dose screen (leukemia); conditions: 10 µM single dose, 48 h
Protocol: as §1

[12] = test system: DU-145; test: NCI-60 five-dose assay (prostate cancer); conditions: 48 h, SRB
[13] = test system: M14; test: NCI-60 five-dose assay (melanoma); conditions: 48 h, SRB
[14] = test system: OVCAR-5; test: NCI-60 one-dose screen (ovarian cancer); conditions: 10 µM single dose, 48 h
Protocol: as §1

[15] = test system: SK-OV-3; test: NCI-60 one-dose screen (ovarian cancer); conditions: 10 µM single dose, 48 h
Protocol: as §1

[16] = test system: IGROV1; test: NCI-60 one-dose screen (ovarian cancer); conditions: 10 µM single dose, 48 h
Protocol: as §1

[17] = test system: OVCAR-8; test: NCI-60 one-dose screen (ovarian cancer); conditions: 10 µM single dose
Protocol: as §1

[18] = test system: NCI/ADR-RES; test: NCI-60 one-dose screen (ovarian cancer); conditions: 10 µM single dose, 48 h
Protocol: as §1

[19] = test system: OVCAR-4; test: NCI-60 one-dose screen (ovarian cancer); conditions: 10 µM single dose, 48 h
Protocol: as §1

[20] = test system: HCT-15; test: NCI-60 five-dose assay (colon cancer); conditions: 48 h, SRB
[21] = test system: SR; test: NCI-60 five-dose assay (leukemia); conditions: 48 h, SRB
[22] = test system: HT29; test: NCI-60 one-dose screen (colon cancer)
Protocol: as §1

[23] = test system: HCT-116; test: NCI-60 one-dose screen (colon cancer); conditions: 10 µM single dose, 48 h
Protocol: as §1

[24] = test system: HCC-2998; test: NCI-60 one-dose screen (colon cancer); conditions: 10 µM single dose
Protocol: as §1

[25] = test system: COLO 205; test: NCI-60 one-dose screen (colon cancer); conditions: 10 µM single dose, 48 h
Protocol: as §1

[26] = test system: HCT-15; test: NCI-60 one-dose screen (colon cancer); conditions: 10 µM single dose, 48 h
Protocol: as §1

[27] = test system: SW-620; test: NCI-60 one-dose screen (colon cancer); conditions: 10 µM single dose, 48 h
Protocol: as §1

[28] = test system: KM12; test: NCI-60 one-dose screen (colon cancer); conditions: 10 µM single dose, 48 h
Protocol: as §1

[29] = test system: RXF 393; test: NCI-60 five-dose assay (renal cancer); conditions: 48 h, SRB
[30] = test system: OVCAR-3; test: NCI-60 five-dose assay (ovarian cancer); conditions: 48 h, SRB
[31] = test system: NCI-H23; test: NCI-60 five-dose assay (non-small cell lung cancer); conditions: 48 h, SRB
[32] = test system: SNB-75; test: NCI-60 five-dose assay (CNS cancer); conditions: 48 h, SRB
[33] = test system: HS 578T; test: NCI-60 five-dose assay (breast cancer); conditions: 48 h, SRB
[34] = test system: SK-MEL-5; test: NCI-60 five-dose assay (melanoma); conditions: 48 h, SRB
[35] = test system: SF-295; test: NCI-60 five-dose assay (CNS cancer); conditions: 48 h, SRB
[36] = test system: ACHN; test: NCI-60 five-dose assay (renal cancer); conditions: 48 h, SRB
[37] = test system: K-562; test: NCI-60 five-dose assay (leukemia); conditions: Homo sapiens, K562, 48 h, SRB
[38] = test system: COLO 205; test: NCI-60 five-dose assay (colon cancer); conditions: 48 h, SRB
[39] = test system: SNB-19; test: NCI-60 five-dose assay (CNS cancer); conditions: 48 h, SRB
[40] = Homo sapiens, read-out: LC50 (the source's name)

CCOc1ccccc1NC1=C(Cl)C(=O)c2nc(C)ccc2C1=O [AQQ2]
TGI [1]: 2920 nM
GI50 ([1]; Homo sapiens): 1490 nM
CC50 [1, 40]: 5700 nM
GP (growth percentage) [2]: 101.38%
GP (growth percentage) [3]: 90.72%
GP (growth percentage) [4]: 46.47%
GP (growth percentage) [5]: −37.33%
GP (growth percentage) [6]: 37.89%
GP (growth percentage) [7]: 32.75%
GP (growth percentage) [8]: −6.33%
GP (growth percentage) [9]: −12.75%
GP (growth percentage) ([10]; 10 µM single dose, 48 h): 1.26%
inhibition at 10 µM ([10]; Homo sapiens, K562, 10 µM single dose): 98.7%
GP (growth percentage) [11]: −35.12%
TGI [12]: 2990 nM
GI50 ([12]; Homo sapiens): 1630 nM
CC50 [12, 40]: 5490 nM
TGI [13]: 2830 nM
GI50 ([13]; Homo sapiens): 1460 nM
LC50 ([13]; Homo sapiens): 5500 nM
GP (growth percentage) [14]: 40.78%
GP (growth percentage) [15]: 85.34%
GP (growth percentage) [16]: −57.52%
GP (growth percentage) ([17]; 48 h): 0.93%
inhibition at 10 µM ([17]; Homo sapiens): 99.1%
GP (growth percentage) [18]: −9.58%
GP (growth percentage) [19]: −91.97%
TGI [20]: 2550 nM
GI50 ([20]; Homo sapiens): 1130 nM
CC50 [20, 40]: 5760 nM
TGI [21]: 4140 nM
GI50 ([21]; Homo sapiens): 543 nM
CC50 [21, 40]: > 100000 nM
GP (growth percentage) ([22]; 10 µM single dose, 48 h): 19.96%
inhibition at 10 µM ([22]; Homo sapiens, HT-29, 10 µM single dose): 80%
GP (growth percentage) [23]: −79.44%
GP (growth percentage) ([24]; 48 h): 20.35%
inhibition at 10 µM ([24]; Homo sapiens): 79.7%
GP (growth percentage) [25]: 99.24%
GP (growth percentage) [26]: −76.56%
GP (growth percentage) [27]: −66.65%
GP (growth percentage) [28]: 60.77%
TGI [29]: 2780 nM
GI50 ([29]; Homo sapiens): 1440 nM
LC50 ([29]; Homo sapiens): 5390 nM
TGI [30]: 2030 nM
GI50 ([30]; Homo sapiens): 759 nM
CC50 [30, 40]: 4540 nM
TGI [31]: 3550 nM
GI50 ([31]; Homo sapiens): 1440 nM
CC50 [31, 40]: 8710 nM
TGI [32]: 3430 nM
GI50 ([32]; Homo sapiens): 1630 nM
LC50 (50% lethal concentration) ([32]; Homo sapiens): 7210 nM
TGI [33]: 5250 nM
GI50 ([33]; Homo sapiens): 2110 nM
CC50 [33, 40]: > 100000 nM
TGI [34]: 3130 nM
GI50 ([34]; Homo sapiens): 1740 nM
CC50 [34, 40]: 5650 nM
TGI [35]: 4200 nM
GI50 ([35]; Homo sapiens): 2030 nM
LC50 (50% lethal concentration) ([35]; Homo sapiens): 8700 nM
TGI [36]: 2690 nM
GI50 ([36]; Homo sapiens): 1350 nM
LC50 ([36]; Homo sapiens): 5350 nM
GI50 [37]: 341 nM
LC50 [37]: > 100000 nM
TGI [38]: 3660 nM
GI50 ([38]; Homo sapiens): 1730 nM
CC50 [38, 40]: 7740 nM
TGI [39]: 3970 nM
GI50 ([39]; Homo sapiens): 1800 nM
CC50 [39, 40]: 8730 nM
